Assay results taken from patent US20120135089A1, “E3 LIGASE INHIBITORS” (priority 2009, published 2012).
Several values for one entry are separate records, joined by “and”; a condition that tells them apart may be missing. Equal values may be shown once. Read-outs that look alike come from different tables or passages of the source.

Columns and labels:
[1] = system: Mdm2-ubiquitin conjugates; assay: cell-based Mdm2 ubiquitination assay (HA-ubiquitin immunoprecipitation); parameters: species or system human; details: Mdm2-luciferase cells, with 10 μM MG132
Procedure: To obtain the results shown in FIG. 4A, Mdm2-luciferase cells were transfected with ubiquitin-HA and treated 8 hours later with 10 μg/ml (28 μM) MEL23, 10 μg/ml (31 μM) MEL24, or a DMSO control. After 16 hours, cells were additionally treated with 10 μM MG132 or a DMSO control. After 3 hours, cells were lysed and immunoprecipitated for 3 hours with anti-HA affinity matrix. Total lysates and immunoprecipitated samples were analyzed by Western blotting using anti-Mdm2 antibody. NT indicates a no treatment control. […] After 8 hours, cells were treated with 10 μg/ml (28 μM) MEL23, 10 μg/ml (31 μM) MEL24, or a DMSO control. After 16 hours, cells were additionally treated with 10 μM MG132 or a DMSO control. After 3 hours cells were lysed and analyzed by Western blotting using anti-p53 antibody. […]
The Mdm2-luciferase cell line was transfected with HA-ubiquitin and pre-treated with 10 μg/ml MEL23 or MEL24, followed by 10 μM MG132. […] Cells lysates were immunoprecipitated with an anti-HA antibody and analyzed by Western blotting. […]
Briefly, Mdm2-luciferase cells were transfected with HA-ubiquitin. […] Input lysates and immunoprecipitated samples were analyzed by Western blotting using anti-Mdm2 antibody.
Briefly, Mdm2-luciferase cells were transfected with HA-ubiquitin. […] Input lysates and immunoprecipitated samples were analyzed by Western blotting using anti-Mdm2 antibody. […]

[2] = biological target: T1, Mdm2-luciferase fusion protein (Homo sapiens, UniProt Q00987); assay: cell-based Mdm2 auto-ubiquitination luminescence assay, Mdm2-luciferase cell line; details: for luminescence of the Mdm2-luciferase cell line: 384-well format; for EC50: 2 hours treatment
T1 construct: Using full-length Mdm2 allowed for the presence of all domains of Mdm2; expressed in transfected cells
Procedure: Cells were plated in 384-well format and treated with MG132 (2 hours) or cycloheximide (30 minutes). Steadylite luminescence buffer (PerkinElmer) was added and the relative luminescence levels determined on a Victor3 Plate Reader. Each graph represents the median of 5 replicates normalized to a no treatment control, and one standard deviation is shown. […] The graphs and EC50 values were determined using Graphpad PRISM®. […] U2OS, RKO, and HCT116 cells (p53 wild-type) were incubated with 5 μg/ml (14 μM) of MEL23, 5 μg/ml (15 μM) of MEL24, or 10 μM of MG132 for 6 hours. Cells were lysed and analyzed by Western blotting using anti-Mdm2, anti-p53, and anti-eIF4E antibodies. NT indicates a no treatment control. […] MCF7 cells (p53 wild-type) were incubated with 30 μg/ml (51 μM) etoposide alone or in combination with 50 μM AlIn or 5 μg/ml (14 μM) MEL23, or 5 μg/ml (15 μM) MEL24 for 16 hours. Cells were lysed and analyzed by Western blotting using anti-MDMX and anti-actin antibodies.
The Mdm2-luciferase cell line was seeded at 7,500 cells per well, in 384-well white plates (PerkinElmer, Waltham, Mass., Cat. No. 6007688), in 27 μl of media (DMEM with FBS and P/S). Assay plates with cells were incubated at 37° C. overnight to allow cells to adhere. After 24 hours, 2 μl from the ‘mother’ plate (4 mg/ml) was transferred to a ‘daughter plate’ containing 148 μl media in order to dilute the compound 1:75. Next, 3 μl from each well of the ‘daughter plates’ was added to triplicate assay plates for a final concentration of 5.33 μg/ml. Assay plates were incubated at 37° C. for 2 hours. Then the cells were lysed with the addition of 30 μl of luminescence buffer (PerkinElmer, Cat. No. 6016989), and the plates were incubated at room temperature for 30 minutes before being analyzed on a Victor3 Plate Reader (PerkinElmer) for luminescence. […] All repurchased compounds were tested in a 2-fold dilution series via the same protocol as the primary screening. All transfers were conducted using a BioMek (Beckman Coulter, Fullerton, Calif.). […] This was determined by comparing the negative control, no treatment, to the positive control, 10 μM MG132.
To identify Mdm2 E3 ligase inhibitors, a high-throughput cellular assay to measure changes in Mdm2 auto-ubiquitination and degradation was designed. This assay took advantage of the fact that Mdm2 can regulate itself in cells through ubiquitination and degradation (8). Two fusion proteins were constructed for the assay: (a) a wild-type Mdm2-luciferase fusion protein, which can auto-ubiquitinate and thereby target itself for degradation; and (b) a mutant Mdm2(C464A)-luciferase fusion protein. Both fusion proteins were constructed with luciferase N-terminal to Mdm2. The C464A mutation disrupts a metal binding site in the RING domain, thereby preventing Mdm2 E3 ligase activity (8). Small molecules that increase the luminescence of the Mdm2-luciferase fusion protein without increasing the luminescence of the Mdm2(C464A)-luciferase fusion protein are likely inhibiting Mdm2 E3 ligase activity or the proteasomal degradation of Mdm2. Alternatively, small molecules that increase the luminescence of both fusion proteins are likely affecting transcription, translation, or have a general cellular impact that is not dependent on the E3 ligase activity of Mdm2 or proteasomal degradation.

T1 sequence (Q00987 whole entry, the tested form may be a part): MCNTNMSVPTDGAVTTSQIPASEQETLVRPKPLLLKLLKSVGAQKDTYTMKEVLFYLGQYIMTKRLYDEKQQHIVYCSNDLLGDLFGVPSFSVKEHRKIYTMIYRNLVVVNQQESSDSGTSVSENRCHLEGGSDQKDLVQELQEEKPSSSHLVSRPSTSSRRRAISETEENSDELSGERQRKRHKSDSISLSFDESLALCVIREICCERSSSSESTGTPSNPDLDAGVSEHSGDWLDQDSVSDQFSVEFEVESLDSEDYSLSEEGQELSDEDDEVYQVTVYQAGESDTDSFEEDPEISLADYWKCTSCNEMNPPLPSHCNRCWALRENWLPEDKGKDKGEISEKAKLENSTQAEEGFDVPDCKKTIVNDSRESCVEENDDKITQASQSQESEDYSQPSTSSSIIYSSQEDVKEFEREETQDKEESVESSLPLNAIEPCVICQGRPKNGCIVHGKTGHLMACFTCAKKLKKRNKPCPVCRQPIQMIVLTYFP

SMILES	Mdm2 ubiquitination in cells (Mdm2-ubiquitin conjugates) [1]	luminescence of the Mdm2-luciferase cell line [2]	EC50 ([2]; EC50, Mdm2-luciferase cell line)	EC50 ([2]; Mdm2-luciferase cell line, read-out: EC50 (converted))
CCCCn1c(=O)[nH]c(O)c(C2NCCc3c2[nH]c2ccccc32)c1=O (stereo not drawn) [MEL23]	significantly less Mdm2-ubiquitin conjugates were immunoprecipitated	increased the luminescence of the Mdm2-luciferase cell line to a similar level as with MG132 treatment	7.62 µM and 7.5 µM	
Cn1c(O)c(C2NCCc3c2[nH]c2ccccc32)c(=O)n(C)c1=O (stereo not drawn) [MEL24]	significantly less Mdm2-ubiquitin conjugates were immunoprecipitated	increased the luminescence of the Mdm2-luciferase cell line to a similar level as with MG132 treatment		9.19 µM and 9.2 µM
